Measurements published in patent US9591867B2, “Compositions of abscisic acid for animal health” (Valent BioSciences Corporation, priority 2010, dated 2017).

Tests used:
rats = assay: Two generation reproduction toxicity study, S-ABA continuously in the diet; assay type: in vivo; settings: for Mean Live Offspring Born: per litter; for SPLEEN WEIGHT, % DIFFERENCE: MALES
Procedure: (§1) Tests were conducted with (S)-(+)-abscisic acid in accordance with standard guidelines and procedures as evidenced by EPA Subchronic Toxicity Test Guidelines: 870.3050—Repeated Dose 28-Day Oral Toxicity Study in Rodents (July 2000); 870.3100—90-Day Oral Toxicity in Rodents (August 1998); 870.3650—Combined Repeated Dose Toxicity Study with the Reproduction/Developmental Toxicity Screening Test (July 2000); and 870.3200—21/28-Day Dermal Toxicity (August 1998), as well as Organization for Economic Co-operation and Development (OECD) Guidelines for the Testing of Chemicals including: Test No. 407: Repeated Dose 28-day Oral Toxicity Study in Rodents; Test No. 408: Repeated Dose 90-Day Oral Toxicity Study in Rodents; Test No. 416: Two-Generation Reproduction Toxicity; and Test No. 410: Repeated Dose Dermal Toxicity: 21/28-day Study.
This study was conducted to determine the potential adverse effects of the test substance on reproduction in a 2-generation study. This included determining the effects of the test substance on male and female reproductive processes, including gonadal function, estrous cyclicity, mating behavior, conception, gestation, parturition, lactation, weaning, and on growth and development of the offspring. A minimum of 1 litter was produced in each generation.
Three groups of male and female were offered ABA, continuously in the diet for at least 70 consecutive days prior to mating. Target tests substance concentrations were 10,000, 15,000, and 20,000 ppm for the F0 and F1 generations. A concurrent control group of 30 rats/sex was offered the basal diet continuously throughout the study. F0 animals were approximately 7 weeks of age at the initiation of test diet administration. The test diet was administered to the offspring selected to become the F1 generation following weaning. The F0 and F1 males continued to receive the test substance throughout mating and continuing through the day prior to euthanasia. The F0 and F1 females continued to receive the test substance throughout mating, gestation, and lactation, and through the day of euthanasia. For both generations (F1 and F2), 8 pups per litter (4 per sex, when possible) were selected to reduce the variability among the litters. Offspring (30/sex/group, if possible) from the pairing of the F0 animals were selected to constitute the F1 generation. F0 males and females were exposed for 127-130 consecutive days and F1 males and females were exposed for 178-186 consecutive days.
All animals were observed twice daily for appearance and behavior. Clinical observations, body weights, and food consumption were recorded at appropriate intervals for males throughout the study and for females prior to mating and during gestation and lactation. All F0 and F1 females were allowed to deliver and rear their pups until weaning on lactation day 21. Clinical observations, body weights, and sexes for F1 and F2 pups were recorded at appropriate intervals. Nonselected F1 pups and all surviving F2 pups were necropsied. Selected organs were weighed from 1 pup/sex/litter from F1 and F2 pups that wee necropsied. Each surviving F0 and F1 parental animal received a complete detailed gross necropsy following the completion of weaning of the F1 and F2 pups, respectively; selected organs were weighed. Spermatogenic endpoints were recorded for all F0 and F1 males, and ovarian primordial follicle counts were recorded for all F0 and F1 females in the control and high-exposure groups and all F0 and F1 females suspected of reduced fertility. Designated tissues from all F0 and F1 parental animals were examined microscopically.

[1] = Fetal data at scheduled necropsy (mg/kg/day dose groups); assay type: in vivo
Procedure: as §1

[2] = 10,000 ppm in diet, rat offspring
[3] = 20,000 ppm in diet, rat offspring

## CC1=CC(=O)CC(C)(C)[C@@]1(O)/C=C/C(C)=C\C(=O)O [S-ABA, (S)-(+)-abscisic acid]
rats; 10,000 ppm in diet
  Offspring FOUND DEAD: 4
  Mean Live Offspring Born: 12.3
rats; 10,000 ppm in diet, FEMALE, postnatal day 1
  OFFSPRING WEIGHT, MEAN: 6.6 grams
rats; 10,000 ppm in diet, FEMALE, postnatal day 4
  OFFSPRING WEIGHT, MEAN: 9.1 grams
rats; 10,000 ppm in diet, MALE, postnatal day 1
  OFFSPRING WEIGHT, MEAN: 7.1 grams
rats; 10,000 ppm in diet, MALE, postnatal day 4
  OFFSPRING WEIGHT, MEAN: 9.7 grams
rats; [2]
  POSTNATAL SURVIVAL, POSTNATAL DAY 0-1, MEAN: 100.0 % PER LITTER
  POSTNATAL SURVIVAL, POSTNATAL DAY 7-14, MEAN: 100.0 % PER LITTER
  POSTNATAL SURVIVAL, POSTNATAL DAY 14-21, MEAN: 100.0 % PER LITTER
rats; 15,000 ppm in diet
  Offspring FOUND DEAD: 15
  Mean Live Offspring Born: 13.1
rats; 15,000 ppm in diet, FEMALE, postnatal day 1
  OFFSPRING WEIGHT, MEAN: 6.6 grams
rats; 15,000 ppm in diet, FEMALE, postnatal day 4
  OFFSPRING WEIGHT, MEAN: 8.8 grams
rats; 15,000 ppm in diet, FEMALE, postnatal day 7
  OFFSPRING WEIGHT, MEAN: 14.0 grams
rats; 15,000 ppm in diet, MALE, postnatal day 1
  OFFSPRING WEIGHT, MEAN: 6.9 grams
rats; 15,000 ppm in diet, MALE, postnatal day 4
  OFFSPRING WEIGHT, MEAN: 9.3 grams
rats; 15,000 ppm in diet, rat offspring
  POSTNATAL SURVIVAL, POSTNATAL DAY 14-21, MEAN: 100.0 % PER LITTER
rats; 20,000 ppm in diet
  Offspring FOUND DEAD: 11
  Mean Live Offspring Born: 12.3
rats; 20,000 ppm in diet, FEMALE, postnatal day 1
  OFFSPRING WEIGHT, MEAN: 6.6 grams
rats; 20,000 ppm in diet, FEMALE, postnatal day 4
  OFFSPRING WEIGHT, MEAN: 8.8 grams
rats; 20,000 ppm in diet, MALE, postnatal day 1
  OFFSPRING WEIGHT, MEAN: 7.0 grams
rats; 20,000 ppm in diet, MALE, postnatal day 4
  OFFSPRING WEIGHT, MEAN: 9.3 grams
rats; [3]
  POSTNATAL SURVIVAL, POSTNATAL DAY 4 (POST-SELECT)-21, MEAN: 98.0 % PER LITTER
  POSTNATAL SURVIVAL, POSTNATAL DAY 14-21, MEAN: 100.0 % PER LITTER
rats; 10,000 PPM vs 0 PPM
  SPLEEN WEIGHT, % DIFFERENCE: −2.0%
rats; 15,000 PPM vs 0 PPM
  SPLEEN WEIGHT, % DIFFERENCE: −3.0%
rats; 20,000 PPM vs 0 PPM
  SPLEEN WEIGHT, % DIFFERENCE: −8.9%
rats; conclusion from Table 3
  offspring mortality (in words): decreases
rats; conclusion from Table 4
  number of live offspring per litter (in words): increases
rats; conclusion from Table 6
  follicle size (in words): increase
rats; rats, conclusion from Table 1
  postnatal offspring survival rates (in words): increases
rats; rats, conclusion from Table 2
  offspring weight gain (in words): increases
rats; rats, males and second generation pups
  spleen weight (in words): spleen weight reduction
[1]; conclusion from Table 5
  fetus numbers at necropsy (in words): increase
[1]; group 2, 500 MG/KG/DAY
  FETAL DATA AT SCHEDULED NECROPSY, SEX FEMALE, MEAN: 7.2
  FETAL DATA AT SCHEDULED NECROPSY, SEX FEMALE, N (number of fetuses): 181
  FETAL DATA AT SCHEDULED NECROPSY, SEX MALE, MEAN: 7.5
  FETAL DATA AT SCHEDULED NECROPSY, SEX MALE, N (number of fetuses): 187
  FETAL DATA AT SCHEDULED NECROPSY, VIABLE FETUSES, MEAN: 14.7
[1]; group 3, 750 MG/KG/DAY
  FETAL DATA AT SCHEDULED NECROPSY, SEX FEMALE, MEAN: 6.6
  FETAL DATA AT SCHEDULED NECROPSY, SEX FEMALE, N (number of fetuses): 166
  FETAL DATA AT SCHEDULED NECROPSY, SEX MALE, MEAN: 7.5
  FETAL DATA AT SCHEDULED NECROPSY, SEX MALE, N (number of fetuses): 188
  FETAL DATA AT SCHEDULED NECROPSY, VIABLE FETUSES, MEAN: 14.2
[1]; group 4, 1,000 MG/KG/DAY
  FETAL DATA AT SCHEDULED NECROPSY, SEX FEMALE, MEAN: 8.3
  FETAL DATA AT SCHEDULED NECROPSY, SEX FEMALE, N (number of fetuses): 208
  FETAL DATA AT SCHEDULED NECROPSY, SEX MALE, MEAN: 6.8
  FETAL DATA AT SCHEDULED NECROPSY, SEX MALE, N (number of fetuses): 170
  FETAL DATA AT SCHEDULED NECROPSY, VIABLE FETUSES, MEAN: 15.1
